target: MGAT2 (microsomal fraction of human small intestine) (Homo sapiens (Human), UniProt Q3SYC2); test: Test Example 2: Test of MGAT2 inhibitory action (microsomal fraction of human small intestine, 3H-labeled 2-monooleoyl glycerol); format: biochemical; details: microsomal fraction of human small intestine 5 μg/ml; 4 μM oleoyl-CoA, 1.25 μM 2-monooleoyl glycerol, 0.125 μM 3H-labeled 2-monooleoyl glycerol; room temperature 30 min; read-out: Activity Value [nM] (IC50, concentration at which 50% of the products 3H-labeled dioleoyl glycerol and trioleoyl glycerol was inhibited)
Description: An MGAT2 inhibition test for test compounds was conducted in accordance with a partially modified version of the method described in John F. Lockwood et al., Am. J. Physiol. Endocrinol. Metab., 2003, 285, E927.
A 10 mg/mL microsomal fraction of human small intestine (duodenum- and jejunum-derived fraction purchased from Becton Dickinson Japan) was used as an enzyme source.
The test was conducted using a flat-bottom 96-well plate (Corning).
A buffer solution with final concentrations of 5 mM magnesium chloride, 1.25 mg/ml bovine serum albumin and 100 mM Tris-HCl (pH=7.5) was prepared and the microsomal fraction of human small intestine was added thereto to give a final concentration of 5 μg/ml. […] Thereafter, final concentrations of 5 mM magnesium chloride, 1.25 mg/ml bovine serum albumin, 100 mM Tris-HCl (pH=7.5), 4 μM oleoyl-CoA, 1.25 μM 2-monooleoyl glycerol and 0.125 μM ^3H-labeled 2-monooleoyl glycerol (Muromachi Yakuhin Co., Ltd.) were added thereto to give a total volume of 100 μl. This mixture was reacted at room temperature for 30 min.
The reaction was stopped by adding an equal amount of isopropanol to the reaction mixture. The substrate contained in the reaction mixture (^3H-labeled 2-monooleoyl glycerol) and the reaction products (^3H-labeled dioleoyl glycerol and trioleoyl glycerol) were separated by adsorbing them onto an octadecylsilane resin (Wako gel 50C18) (Wako Pure Chemical Industries, Ltd.), removing the substrate by use of 80% isopropanol, and then eluting the reaction products with 100% isopropanol. The amounts of the reaction products were measured with MicroBeta (PerkinElmer Japan).

Chain of MGAT2 (microsomal fraction of human small intestine) (Q3SYC2 whole entry): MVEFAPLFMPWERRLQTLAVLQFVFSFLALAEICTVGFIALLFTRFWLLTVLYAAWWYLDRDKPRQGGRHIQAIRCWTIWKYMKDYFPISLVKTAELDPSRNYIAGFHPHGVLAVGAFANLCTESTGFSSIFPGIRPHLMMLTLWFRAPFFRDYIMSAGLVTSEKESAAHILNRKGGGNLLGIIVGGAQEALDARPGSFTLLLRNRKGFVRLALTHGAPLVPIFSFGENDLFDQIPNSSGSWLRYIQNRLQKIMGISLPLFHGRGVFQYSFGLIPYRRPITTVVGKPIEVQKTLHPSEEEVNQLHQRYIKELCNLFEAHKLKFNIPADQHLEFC

Row | SMILES | IC50 [nM]
1 | CCn1cc(CN2CCc3cc(S(=O)(=O)Nc4ccc(CCCC5CCCC5)cc4F)ccc3C2)cn1 [Working Example 6-82] | 182
2 | Cc1ccc(-n2cc(CN3CCc4cc(S(=O)(=O)Nc5ccc(CCCC6CCCC6)cc5F)ccc4C3)cn2)cc1 [Working Example 7-76] | 16
3 | Cc1nn(C)c(C)c1CN1CCc2cc(S(=O)(=O)Nc3ccc(CCCC4CCCC4)cc3F)ccc2C1 [Working Example 7-82] | 189
4 | CC(C)(C)c1cc(CN2CCc3cc(S(=O)(=O)Nc4ccc(CCCC5CCCC5)cc4F)ccc3C2)ccn1 [Working Example 6-85] | 71
5 | CC(C)(C)c1cc(CN2CCc3cc(S(=O)(=O)Nc4ccc(OCCC5CCOCC5)cc4F)ccc3C2)ccn1 [Working Example 8-7] | 235
6 | O=S(=O)(Nc1ccc(CCCC2CCCC2)cc1F)c1ccc2c(c1)CCN(Cc1cnn(C3CCC3)c1)C2 [Working Example 2-9] | 142
7 | O=S(=O)(Nc1ccc(CCCC2CCCC2)cc1F)c1ccc2c(c1)CCN(Cc1ccc(OCC(F)(F)F)nc1)C2 [Working Example 6-84] | 248
8 | CC(C)(C)c1ncc(CCN2CCc3cc(S(=O)(=O)Nc4ccc(CCCC5CCCC5)cc4F)ccc3C2)s1 [Working Example 6-88] | 248
9 | C[C@H](c1ccc(C(C)(C)C)nc1)N1CCc2cc(S(=O)(=O)Nc3ccc(CCCC4CCCC4)cc3F)ccc2C1 [24-1, 2-[(1R)-1-(6-tert-Butylpyridin-3-yl)ethyl]-N-[4-(3-cyclopentylpropyl)-2-fluorophenyl]-1,2,3,4-tetrahydroisoquinoline-6-sulfonamide] | 4
10 | CC(C)(C)n1cc(CN2CCc3cc(S(=O)(=O)Nc4ccc(CCCC5CCCC5)cc4F)ccc3C2)cn1 [Working Example 2-4] | 92
11 | CC(C)(C)c1ccc(CCN2CCc3cc(S(=O)(=O)Nc4ccc(OCCOC5CCCCC5)cc4F)ccc3C2)cc1 [Working Example 8-13] | 137
12 | CC(C)Cn1cc(CN2CCc3cc(S(=O)(=O)Nc4ccc(CCCC5CCCC5)cc4F)ccc3C2)cn1 [Working Example 2-6] | 174
13 | Cc1c(CN2CCc3cc(S(=O)(=O)Nc4ccc(CCCC5CCCC5)cc4F)ccc3C2)cnn1-c1ccccc1 [Working Example 7-70] | 81
14 | CC(C)(C)c1ccc(CCN2CCc3cc(S(=O)(=O)Nc4ccc(OCCC5CCOC5)cc4F)ccc3C2)cc1 (centres unmarked) [Working Example 8-10] | 148
15 | CC(C)(C)c1ccc(CCN2CCc3cc(S(=O)(=O)Nc4ccc(OCC[C@H]5CCOC[C@H]5F)cc4F)ccc3C2)cc1 [Working Example 8-11] | 169

The next lines start with the values.

Row | IC50 [nM] | SMILES
16 | 57 | CC(c1cnc(C(C)(C)C)nc1)N1CCc2cc(S(=O)(=O)Nc3ccc(CCCC4CCCC4)cc3F)ccc2C1 (single isomer, unassigned) [24-7]
17 | 42 | CC(c1ccc(C(F)(F)F)nc1)N1CCc2cc(S(=O)(=O)Nc3ccc(CCCC4CCCC4)cc3F)ccc2C1 (single isomer, unassigned) [24-3]
18 | 100 | CC(c1cnc(C(F)(F)F)nc1)N1CCc2cc(S(=O)(=O)Nc3ccc(CCCC4CCCC4)cc3F)ccc2C1 (single isomer, unassigned) [24-10]
19 | 5 | CC(C)(C)c1ccc(C(C)(C)N2CCc3cc(S(=O)(=O)Nc4ccc(CCCC5CCCC5)cc4F)ccc3C2)cn1 [20-4]
20 | 131 | CC(c1cnc(C(F)(F)F)nc1)N1CCc2cc(S(=O)(=O)Nc3ccc(CCCC4CCCC4)cc3F)ccc2C1 (single isomer, unassigned) [24-9]
21 | 200 | CC(C)(C)c1ccc(CC2(N3CCc4cc(S(=O)(=O)Nc5ccc(CCCC6CCCC6)cc5F)ccc4C3)CC2)cc1 [25-1, 2-[1-(4-tert-Butylbenzyl)cyclopropyl]-N-[4-(3-cyclopentylpropyl)-2-fluorophenyl]-1,2,3,4-tetrahydroisoquinoline-6-sulfonamide]
22 | 115 | CC(c1ccc(OCC(F)(F)F)nc1)N1CCc2cc(S(=O)(=O)Nc3ccc(CCCC4CCCC4)cc3F)ccc2C1 (centres unmarked) [23-6]
23 | 13 | CC(c1ccnc(C(C)(C)C)c1)N1CCc2cc(S(=O)(=O)Nc3ccc(CCCC4CCCC4)cc3F)ccc2C1 (centres unmarked) [23-3]

— patent US9035059B2, “Nitrogen-containing condensed heterocyclic compound” (TAISHO PHARMACEUTICAL CO., LTD., priority 2011, dated 2015)
